From US10195178B2, “GPR40 agonists in anti-diabetic drug combinations” (Janssen Pharmaceutica NV, priority 2016, dated 2019)
Where “and” joins values, the source holds several entries; their conditions need not be identical. Identical values can stand only once. Values belong to the compound of their own block, whether it stands above or below them.

What was measured:
SD rats = assay: Oral Glucose Tolerance Test: Canagliflozin Combination with GPR40 Agonist; format: in vivo; details: SD rat OGTT; for Blood glucose 0 min / Blood glucose 30 min / Blood glucose 60 min / Blood glucose 120 min / Blood glucose AUC / Blood glucose AUC % of Vehicle: single oral dose 60 min before glucose 2 g/kg; for Blood glucose AUC / Blood glucose AUC % of Vehicle: AUC 0-120 min
Procedure: We have evaluated the blood glucose (BG) lowering effect of canagliflozin (Cana) combined with a GPR40 agonist Cpd 2 in SD rat studies. Overnight fasted SD rats received either a single treatment of Cana or Cpd 2 or a combination of both. An oral glucose tolerance test (OGTT) was followed at 60 min post compound administration. […] The two-sided Z Test and Delta method were applied to statistically determine the treatment additivity of combinations using blood glucose AUC values. Results indicated the treatments were additive in the combinations of Canagliflozin at 1 or 3 mg/kg and Cpd 2 at 0.3 or 1 mg/kg.
• A. The formulation of Canagliflozin was prepared by directly adding the required amount of 0.5% HPMC to the compound and stirring overnight. • B. The formulation of Cpd 2 was prepared following steps listed below: • a. One equivalent (amount of compound/compound MW) of 1N NaOH was added to dry compound to enhance water solubility (due to compound itself is a carboxylic acid). • b. The required volume of 0.5% HPMC was then added; • c. The compound was vortexed and sonicated (without heat) for a minimum of 10 minutes. • d. The compound was then allowed to stir overnight. • C. For the formulation of combination of Canagliflozin (Cana) and Cpd 2: • a. First, a formulation of double concentrations of each compound was prepared.
• b. Right before dosing, the double-concentrated formulation of Cpd 2 was mixed with an equal volume of the double-concentrated formulation of Canagliflozin, such that each compound was as 1× concentration. • D. The dosing volume for all the experiments was 10 mL/kg Experimental Design
Male SD rats (225-245 g of body weight, purchased from Charles River) were used in this study. SD rats were housed 2 per cage in a temperature-controlled room with 12-hour light/dark cycle (6 am-6 pm lights on). They are allowed ad libitum access to water and fed with Purina 5K75 (LabDiet, St. Louis, Mo.).
SD rats were fasted overnight. In the morning of the next day, these rats were grouped into the following 12 groups based on their fasted blood glucose levels determined by a glucometer (LifeScan, New Brunswick, N.J.) and body weight.
At −60 minutes BG values were collected via tail bleeding. Next, rats were dosed orally with vehicle or compounds in vehicle. Then, at 0 minutes, rats were bled via tail vein to determine BG levels and dosed orally with glucose (2 g/kg; 50% glucose, 4 mL/kg). Blood samples were collected at 30, 60, and 120 minutes after oral glucose administration for BG determination.
Statistical analysis were performed using the program Prism (Graphpad, Monrovia, Calif.) with either a repeated measures 1-way ANOVA (glucose and insulin curves with Tukey's post-test) or a one-way ANOVA and Tukey's multiple comparison test (AUC, delta AUC and percent vehicle). All data are presented as the mean±standard error of the mean (SEM).
The two-sided Z Test and Delta method was applied to statistically determine the treatment additivity of combinations.

human GPR40 = human GPR40 (Homo sapiens (Human), UniProt O14842); assay: GPR40 Calcium Flux Assay; format: cell-based; details: transfected HEK293 cells stably expressing human GPR40; mean data; read-out: hGPR40 Ca2+ Assay EC50
Sequence of human GPR40 (O14842 whole entry): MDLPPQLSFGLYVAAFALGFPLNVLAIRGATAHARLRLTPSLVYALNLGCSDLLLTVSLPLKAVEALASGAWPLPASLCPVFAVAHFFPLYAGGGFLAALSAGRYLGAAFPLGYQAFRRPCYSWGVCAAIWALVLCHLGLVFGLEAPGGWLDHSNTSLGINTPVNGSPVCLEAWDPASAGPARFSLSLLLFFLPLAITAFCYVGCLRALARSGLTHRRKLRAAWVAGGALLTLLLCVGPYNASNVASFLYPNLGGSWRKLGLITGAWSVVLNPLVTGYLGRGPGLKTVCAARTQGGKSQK
Procedure: Compounds were tested in a calcium flux assay using transfected HEK293 cells stably expressing either human GPR40 or rat GPR40. Human GPR40 expressing cells were cultured in DMEM-High Glucose media supplemented with 10% fetal bovine serum, 1×L-Glutamine, 1×Penicillin/Streptomycin and 500 μg/mL G418. Rat GPR40 expressing cells were cultured in DMEM-High Glucose media supplemented with 10% fetal bovine serum and 1 μg/mL puromycin. Cells were plated into poly-D-lysine coated 384-well plates and cultured overnight in a 37° C. humidified tissue culture incubator under 5% CO2/[…] atmosphere. On the day of the experiment, the culture media was replaced with assay buffer (HBSS, 20 mM HEPES, 0.1% BSA) and the cells incubated at 37° C. for 1 h. Calcium-sensitive fluorescent dye (Fluo 8 No-Wash Calcium Dye, ABD Bioquest) was then added and the cells incubated for another 30 min at 37° C. followed by 15 min at room temperature while protected from the light. The cell plate and a plate of diluted compounds of Formula (I) were loaded into a fluorescent plate reader that added compounds onto the cells while measuring the fluorescence intensity of each well. The plate reader recorded fluorescence intensity at 1 second intervals for 8 min and provided the data for analysis in an Excel format. EC50 values were calculated using Prism (GraphPad) software.

Compound: Cc1ccc([C@@H]2O[C@H](CO)[C@@H](O)[C@H](O)[C@H]2O)cc1Cc1ccc(-c2ccc(F)cc2)s1 [Cana, canagliflozin]
Blood glucose lowering during OGTT (in words) (SD rats; 10 mg/kg): markedly lowering blood glucose | Blood glucose 0 min (SD rats; 1 mpk): 76.9 ± 2.3 mg/dL | Blood glucose 30 min (SD rats; 1 mpk): 162.8 ± 6.5 mg/dL | Blood glucose 60 min (SD rats; 1 mpk): 177.8 ± 4.0 mg/dL | Blood glucose 120 min (SD rats; 1 mpk): 135.5 ± 8.2 mg/dL | Blood glucose AUC (SD rats; 1 mpk): 18,099 ± 551 mg/dL/120 min | Blood glucose AUC % of Vehicle (SD rats; 1 mpk): 95.4 ± 2.9% | Blood glucose 0 min (SD rats; 3 mpk): 85.1 ± 3.0 mg/dL | Blood glucose 30 min (SD rats; 3 mpk): 140.5 ± 5.1 mg/dL | Blood glucose 60 min (SD rats; 3 mpk): 156.4 ± 4.0 mg/dL | Blood glucose 120 min (SD rats; 3 mpk): 125.1 ± 9.7 mg/dL | Blood glucose AUC (SD rats; 3 mpk): 16,204 ± 412 mg/dL/120 min | Blood glucose AUC % of Vehicle (SD rats; 3 mpk): 85.4 ± 2.2% | Blood glucose 0 min (SD rats; 10 mpk): 73.6 ± 4.4 mg/dL | Blood glucose 30 min (SD rats; 10 mpk): 91.9 ± 6.4 mg/dL | Blood glucose 60 min (SD rats; 10 mpk): 103.5 ± 5.4 mg/dL | Blood glucose 120 min (SD rats; 10 mpk): 95.1 ± 3.7 mg/dL | Blood glucose AUC (SD rats; 10 mpk): 11,400 ± 459 mg/dL/120 min | Blood glucose AUC % of Vehicle (SD rats; 10 mpk): 60.1 ± 2.4%

Compound: CC#C[C@@H](CC(=O)O)c1ccc(OCc2ccc3scc(-c4ccccc4C)c3c2)cc1 [Cpd 2, (3S)-3-[4-[[3-(2-Methylphenyl)benzo[b]thiophen-5-yl]methoxy]phenyl]hex-4-ynoic acid]
Blood glucose 0 min (SD rats; 0.3 mpk): 86.1 ± 4.2 mg/dL | Blood glucose 30 min (SD rats; 0.3 mpk): 149.0 ± 4.3 mg/dL | Blood glucose 60 min (SD rats; 0.3 mpk): 153.1 ± 4.2 mg/dL | Blood glucose 120 min (SD rats; 0.3 mpk): 103.3 ± 4.0 mg/dL | Blood glucose AUC (SD rats; 0.3 mpk): 15,750 ± 244 mg/dL/120 min | Blood glucose AUC % of Vehicle (SD rats; 0.3 mpk): 83.0 ± 1.3% | Blood glucose 0 min (SD rats; 1 mpk): 76.1 ± 5.0 mg/dL | Blood glucose 30 min (SD rats; 1 mpk): 132.3 ± 6.4 mg/dL | Blood glucose 60 min (SD rats; 1 mpk): 139.6 ± 7.3 mg/dL | Blood glucose 120 min (SD rats; 1 mpk): 102.4 ± 4.8 mg/dL | Blood glucose AUC (SD rats; 1 mpk): 14,464 ± 554 mg/dL/120 min | Blood glucose AUC % of Vehicle (SD rats; 1 mpk): 76.2 ± 2.9%

Compound: Cc1ccccc1-c1csc2ccc(COc3ccc([C@]4(CC(=O)O)C[C@@H](O)C4)cc3)cc12 [Cpd 31, 2-((1r,3r)-3-Hydroxy-1-(4-((3-(2-methylphenyl)benzo[b]thiophen-5-yl)methoxy)phenyl)cyclobutyl)acetic acid]
EC50 (human GPR40): 48 nM

EC50 (human GPR40): 16 nM and 6 nM and 5 nM
Compound: CC#C[C@@H](CC(=O)O)c1ccc(OCc2ccc3scc(-c4ccc(OCCOC)cc4C)c3c2)nc1 [Cpd 77, (3R)-3-(6-((3-(4-(2-Methoxyethoxy)-2-methylphenyl)benzo[b]thiophen-5-yl)methoxy)pyridin-3-yl)hex-4-ynoic acid]

Compound: CC#CC(CC(=O)O)c1ccc(OCc2ccc3scc(-c4ccccc4C)c3c2)cc1 (stereo not shown) [Cpd 97, 3-(4-((3-(2-Methylphenyl)benzo[b]thiophen-5-yl)methoxy)phenyl)hex-4-ynoic acid]
EC50 (human GPR40): 4 nM
